The record followed here is patent US11492671B2, “MiRNAs for treatment and in vitro diagnosis of drug resistant tumors” (ISTITUTI FISIOTERAPICI OSPITALIERI, priority 2018, dated 2022).

Data set [1] relates to sensitive M14 and WM266 melanoma cells. Briefly: Cell viability / proliferation after transient transfection of miRNAs, with or without a BRAFi. To be noted: enforced expression by transient transfection, FIG. 12; for effect of BRAFi on cell viability: in the presence of a BRAFi. It counts as cell-based, human. The method, then:
(§1) Viability of cells was examined with 3-(4,5-dimethylthiazol-2-yl)-2,5-diphenyltetrazolium bromide Cell Titer 96 AQueous One Solution Cell Proliferation Assay (Promega), according to the manufacturer's protocol. The plates were analyzed in a Multilabel Counter (Bio-Rad Laboratories). Cell viability was also determined by crystal violet staining. Briefly, the cells were stained for 20 min at room temperature with staining solution (0.5% crystal violet in 30% methanol), washed four times with water and then dried. Cells were then dissolved in a Methanol/SDS solution and the adsorbance (595 nm) was read using a microplate ELISA reader.
(§2) Next, the biological consequences of overexpressing or inhibiting the expression of the four selected miRNAs above miR-4443, miR-4488, miR-204-5p and miR-199b-5p were assessed by transient transfections in sensitive M14 and WM266 melanoma cells in the presence or not of a BRAFi in order to evaluate melanoma cell proliferation and apoptosis induction.

Data set [2] has the same test system. Kind of data set: Apoptosis induction measured by Caspase 3/7 activation after transient transfection, with or without a BRAFi. It counts as cell-based, human. To be noted: enforced expression by transient transfection, FIG. 13; for BRAFi induction of apoptosis, measured by Caspase 3/7 activation: in the presence of a BRAFi. The procedure:
as §2

In a further data set the test system is A375^DR melanoma cells. Briefly: Colony formation / growth of cells double resistant to BRAF and MEK inhibitors. It counts as cell-based, human. Particulars: miRNAs targeted individually; FIG. 18 left. The source says: Data are mean±s.d. from three independent experiments. P<0.05.
Human melanoma cell lines M14 (ATCC® HTB-129™) and A375 (ATCC® CRL-1619™) (both V600E) were from American Type Culture Collection (ATCC®). LOX IMVI (V600E) melanoma cell line (EZT-LOXI-1) was from EZ Byosistems™. WM266 melanoma cell line (V600D)(WM266-4-01-0001) was from ROCKLAND™ antibodies & assays. Resistant melanoma cells were selected by treating them for about two months with increasing drug concentrations every two weeks (from 50 nM to 2 μM). A375^DR cells were selected in the presence of both BRAF and MEK inhibitors, as previously done for M14^R, WM266^R, LOX IMVI^R and A375^R. All human melanoma cell lines used in the present work were cultured in RPMI supplemented with 10% (vol/vol) FBS. Human umbilical vein endothelial cells (HUVEC)s, were employed between the third and the seventh passage, were grown in Eagle Basal Medium (EBM) supplemented with 4% FBS, 0.1% gentamicin, 1 μg/mL hydrocortisone, […] and 12 μg/mL bovine brain extract (Cambrex, Bio Science).
Next, the growth inhibitory effect of simultaneously targeting miRNAs combinations was determined. In detail, for these experiments antagomiRs recognising the UPMIRNAs (amiR-4443: aaaacccacgcctccaa (SEQ ID NO: 10) and amiR-4488: cgccggagcccgccccct (SEQ ID NO: 11)) in different combinations with DOWNMIRNAs mimics (miR-204-5p: […] (SEQ ID NO: 2) and miR-199b-5p […] (SEQ ID NO: 1)) were transiently transfected in melanoma cell lines. […] In addition, the effect of targeting miRNAs individually or in combinations was assessed in a cell line rendered double resistant to both BRAF and MEK inhibitors (called A375^DR). Other investigators have previously reported that double drug resistant melanoma cell lines are more difficult to growth inhibit (5). In fact no growth inhibition was observed effect on A375^DR when the four selected miRNAs were targeted individually (FIG. 18, left panel). […]

The subject of data set [3] is drug sensitive and resistant M14 cells. Briefly: In vitro short term colony formation assay. To be noted: overexpression in BRAFi drug resistant cells (M14^R); FIG. 15. It counts as cell-based, human. The method, then:
as §1, with “reader. […]” for “reader.”

A further data set relates to M14^S melanoma cells. Briefly: Development of BRAFi-resistant colonies under chronic BRAFi exposure. To be noted: miRNA overexpressed, cells exposed chronically to a BRAFi (1 μM vemurafenib) for 28 days; FIG. 16. It counts as cell-based, human. The method, then:
FIG. 16 M14^S melanoma cells were transfected with the indicated miRNAs for 72 h and then stained with Crystal violet (day 0). The remaining plates were treated with 1 μM vemurafenib every 48 h and then stained after 7, 14, 21 and 28 days. Data are mean±s.d. from three independent experiments. P<0.05. The pictures shown are representative of three independent experiments.
Hereafter, the effects of the DOWNMIRNAs on the development of drug resistance in vitro were determined. […] In contrast, growth of control cells transfected with scrambled-miRNA was initially impaired by the presence of a BRAF inhibitor (from 7 to 21 days of drug exposure), but gave rise to resistant colonies at later times (day 28) (FIG. 16).

The test system of data set [4] is human umbilical vein endothelial cells (HUVEC). Kind of data set: Endothelial tube formation assay on matrigel. It counts as cell-based. The procedure:
Growth factor reduced Matrigel (10 μL/well) was allowed to polymerize for 1 h on angiogenesis 96 well μ-plates (ibidi, GmbH) at 37° C., 5% CO2. HUVEC (5×10^3 cells/well) suspended in 50 μL of pre-warmed Eagle Basal Medium (CTRL), 10% FBS, or conditioned media from WM266^S, or WM266^R cells, were seeded on matrigel and allowed to form tubes at 37° C. in humidified air with 5% CO2 for 6 h. In order to quantify tube formation, images were acquired and the number of tubes formed by cord-like structures exceeding 100 μm in length were visualized using Axiovision 4.8 software (Carl Zeiss) and counted.
This finding was of particular interest in the light of the known involvement of VEGF in melanoma progression and resistance to therapy (23). […] Of note, for our results only tube-like structures exceeding 100 μm in length were considered. […] As control, 10% FBS employed as a source of angiogenic growth factors, elicited a considerable response rising to 204% over basal (FIG. 24). […] In order to find a correlation between miRNAs deregulation and […]

The subject of data set [5] is VEGFA in WM266^R melanoma cells. Kind of data set: Western blot analysis of VEGFA protein levels after miRNA transfection. It counts as cell-based, human. To be noted: miRNA overexpressed in WM266^R cells vs Scrambled miRNA; FIG. 26. The source says:
FIG. 26 WM266^R melanoma cells transfected with Scrambled miRNA or miR-199b-5p were harvested and subjected to Western blot analysis to detect VEGFA and GAPDH protein levels.
Antibodies against VEGFA and GAPDH were obtained from Santa Cruz Biotechnology. Vemurafenib and trametinib were obtained from Selleck Chemicals. TaqMan probes for GAPDH, VEGF, BCL2, miR-4443, miR-4488, miR-204-5p, miR-199b-5p, miR-630, miR-1234, is-3676 (previously named miR-3676-3p), miR-145-5p and RNU48 were purchased from Applied Biosystems. Melanoma cells were lysed with RIPA buffer; 50 μg of total protein were resolved under reducing conditions by 8% SDS-PAGE and transferred to reinforced nitrocellulose (BA-S 83, Schleider and Schuell, Keene, N.H., USA). The membranes were blocked with 5% non fat dry milk in PBS 0.1% Tween 20, and incubated with the different primary antibodies. The membranes were rehydrated and probed with anti-GAPDH, to estimate the protein equal loading. Densitometric analysis was performed using Quantity One Program (Bio-Rad Laboratories GmbH) and results were expressed as mean values from three independent experiments.
VEGF increased expression and release members of miR-199 family were considered (25). […] Therefore, miR-199b-5p was overexpressed in WM266^R cells.

“miR-4443: UPMIRNA, uuggaggcguggguuuu (SEQ ID NO: 10), enforced expression by transient transfection (UUGGAGGCGUGGGUUUU; listed as RNA, chemistry not given here; listed as Homo sapiens)”: the “effect of BRAFi on cell viability” value in data set [1] is “decreases the effect of BRAFi”. In addition, the “BRAFi induction of apoptosis, measured by Caspase 3/7 activation” value (shortened to “BRAFi induction of apoptosis, measured”) in data set [2] was “decreases the effect of BRAFi”.
Regarding “amiR-4488: antagomiR recognising miR-4488: cgccggagcccgccccct (antisense CGCCGGAGCCCGCCCCCT; listed as DNA, chemistry not given here)”, the “A375^DR colony formation / growth inhibition” value in the data set on A375^DR melanoma cells was “not able to affect”.
The same measure, in the same setting: under “amiR-4443: antagomiR recognising miR-4443: aaaacccacgcctccaa (antisense AAAACCCACGCCTCCAA; listed as DNA, chemistry not given here)” stands “not able to affect”.
“miR-199b-5p: miRNA mimic: cccaguguuuagacuaucuguuc (SEQ ID NO:1) (CCCAGUGUUUAGACUAUCUGUUC; listed as RNA, chemistry not given here; listed as Homo sapiens)”: in data set [1], the “effect of BRAFi on cell viability” value was “potentiates BRAFi activity” and the cell proliferation result is “inhibits cell proliferation”. Further, in data set [2], the “BRAFi induction of apoptosis, measured” value is on record as “potentiates BRAFi activity” and the “apoptosis (Caspase 3/7 activation)” value is given as “induces apoptosis”. The colony formation entry in data set [3] is “strongly impaired colony formation”. Besides, in the data set with M14^S melanoma cells, the “ability to form BRAFi-resistant colonies” value is recorded as “completely lost the ability to form BRAFi-resistant colonies”. Moreover, in the data set with A375^DR melanoma cells, the “A375^DR colony formation / growth inhibition” value was “not able to affect”. The “tube formation induced by CM from transfected WM266^R cells” value in data set [4] (conditioned medium of WM266^R cells transfected with the miRNA, FIG. 27) is “lost the capability to induce tube formation”. The “VEGF expression (Western Blot)” value in data set [5] is on record as “able to reduce specifically VEGF expression”.
For “Avastin: used to inhibit VEGFR activity; called VEGFR inhibitor [reference compound]”, in data set [4] (addition of VEGFR inhibitor, FIG. 25), the “tube formation induced by CM from WM266^R melanoma cells” value is given as “significantly inhibited”.
For “miR-4488: UPMIRNA, agggggcgggcuccggcg (SEQ ID NO: 11), enforced expression by transient transfection (AGGGGGCGGGCUCCGGCG; listed as RNA, chemistry not given here; listed as Homo sapiens)”, the “effect of BRAFi on cell viability” value in data set [1] is on record as “decreases the effect of BRAFi”. In data set [2], the “BRAFi induction of apoptosis, measured” value was “decreases the effect of BRAFi”.
